In ChEMBL document CHEMBL5518245, “Development of an Imidazopyridazine-Based MNK1/2 Inhibitor for the Treatment of Lymphoma” (J Med Chem, 2024):
Values belong to the compound of their own block, whether it stands above or below them.

Assays:
[1] = molecular target: Voltage-gated inwardly rectifying potassium channel KCNH2 (Homo sapiens, UniProt Q12809)
in vitro [2] = conditions: human, liver microsomes
in vitro [3] = conditions: rat, liver microsomes
in vitro [4] = conditions: dog, liver microsomes
TMD8 [5] = test: cells; conditions: Homo sapiens, TMD8, 72 h
PC-3 = test: cells; conditions: Homo sapiens, PC-3, 72 h
A549 = test: cells; conditions: Homo sapiens, A549, 72 h
HT-29 = test: cells; conditions: Homo sapiens, HT-29, 72 h
TMD8 [6] = test: Antitumor activity against human TMD8 cells xenografted in mouse assessed as tumor growth inhibition at 10 mg/kg, po; format: functional; conditions: read-out: TGI
PANC-1 = test: cells; conditions: Homo sapiens, PANC-1, 72 h
LN-18 = test: Antiproliferative activity against human LN-18 cells assessed as inhibition of cell growth incubated for 72 hrs MTS assay; format: functional, cell-based; conditions: LN-18, 72 h
DOHH-2 = test: cells; conditions: Homo sapiens, DOHH-2, 72 h
MDA-MB-231 = test: cells; conditions: Homo sapiens, MDA-MB-231, 72 h

Chain of Voltage-gated inwardly rectifying potassium channel KCNH2 (Q12809 whole entry): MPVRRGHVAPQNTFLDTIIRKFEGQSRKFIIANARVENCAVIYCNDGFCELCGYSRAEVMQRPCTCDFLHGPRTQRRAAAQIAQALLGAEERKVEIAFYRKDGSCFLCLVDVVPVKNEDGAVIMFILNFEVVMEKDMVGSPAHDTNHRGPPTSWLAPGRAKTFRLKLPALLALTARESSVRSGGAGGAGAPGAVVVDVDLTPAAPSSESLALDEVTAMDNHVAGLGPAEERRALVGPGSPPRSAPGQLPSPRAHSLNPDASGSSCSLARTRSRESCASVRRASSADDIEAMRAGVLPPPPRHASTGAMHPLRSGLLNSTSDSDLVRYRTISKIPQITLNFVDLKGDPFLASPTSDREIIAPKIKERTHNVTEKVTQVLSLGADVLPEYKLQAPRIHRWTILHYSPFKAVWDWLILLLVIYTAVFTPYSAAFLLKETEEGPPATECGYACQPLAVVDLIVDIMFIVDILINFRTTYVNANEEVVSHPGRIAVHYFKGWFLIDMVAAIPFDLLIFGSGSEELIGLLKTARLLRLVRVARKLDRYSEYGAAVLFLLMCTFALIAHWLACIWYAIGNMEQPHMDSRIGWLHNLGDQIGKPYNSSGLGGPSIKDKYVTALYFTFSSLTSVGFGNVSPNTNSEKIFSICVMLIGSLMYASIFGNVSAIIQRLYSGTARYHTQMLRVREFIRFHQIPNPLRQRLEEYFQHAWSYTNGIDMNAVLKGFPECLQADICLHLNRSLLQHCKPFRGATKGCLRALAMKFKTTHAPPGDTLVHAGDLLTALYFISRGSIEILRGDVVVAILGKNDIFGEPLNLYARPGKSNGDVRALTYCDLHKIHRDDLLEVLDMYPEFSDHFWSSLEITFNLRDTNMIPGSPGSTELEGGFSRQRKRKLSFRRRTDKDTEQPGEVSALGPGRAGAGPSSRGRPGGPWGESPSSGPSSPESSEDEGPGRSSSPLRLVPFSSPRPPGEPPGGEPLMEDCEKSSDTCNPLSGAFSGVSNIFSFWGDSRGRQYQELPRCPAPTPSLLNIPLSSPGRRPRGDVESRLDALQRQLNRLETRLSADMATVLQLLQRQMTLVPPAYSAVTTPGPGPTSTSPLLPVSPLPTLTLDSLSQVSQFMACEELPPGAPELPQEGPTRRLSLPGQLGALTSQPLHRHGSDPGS

Compound: NC1CCN(C(=O)c2ccc(-c3ccc4ncc(-c5cc6ccccc6o5)n4c3)cc2)CC1
IC50 [1]: 4.4 µM

Compound: N[C@H]1CCCN(C(=O)c2ccc(-c3ccc4ncc(-c5cc6ccccc6o5)n4n3)cc2)C1
IC50 [1]: > 30 µM

Compound: CN(C)C1CCN(C(=O)c2ccc(-c3ccc4ncc(-c5cc6ccccc6o5)n4c3)cc2)CC1
IC50 [1]: 1.03 µM

Compound: O=C(c1ccc(-c2ccc3ncc(-c4cc5ccccc5o4)n3n2)cc1)N1CCC(N2CCCCC2)CC1
IC50 [1]: > 30 µM

Compound: O=C(c1ccc(-c2ccc3ncc(-c4cc5ccccc5o4)n3n2)cc1)N1CCOCC1
IC50 [1]: > 30 µM

Compound: N[C@@H]1CCCN(C(=O)c2ccc(-c3ccc4ncc(-c5cc6ccccc6o5)n4n3)cc2)C1
IC50 [1]: 5.82 µM

Compound: N[C@@H]1CCCN(C(=O)c2ccc(-c3ccc4ncc(-c5cc6ccccc6o5)n4c3)cc2)C1
IC50 [1]: 4.66 µM

Compound: CN(C)C1CCN(C(=O)c2ccc(-c3ccc4ncc(-c5cc6ccccc6o5)n4n3)cc2)CC1
IC50 [1]: 2.97 µM

Compound: NC1CCN(C(=O)c2ccc(-c3ccc4ncc(-c5cc6ccccc6o5)n4n3)cc2)CC1
IC50 [1]: 7.98 µM

half-life (in vitro [2]): 1.12 h
half-life (in vitro [3]): 0.302 h
half-life (in vitro [4]): 1.39 h
Compound: N#Cc1ccc(-c2cnc3ccc(-c4ccc(C(=O)N5CCOCC5)cc4)cn23)cc1 [TINODASERTIB]

half-life (in vitro [2]): > 2 h
IC50 (TMD8 [5]): > 50 µM
IC50 (PC-3): 29.4 µM
IC50 (A549): > 50 µM
IC50 (HT-29): > 50 µM
IC50 (PANC-1): > 50 µM
half-life (in vitro [3]): > 2 h
half-life (in vitro [4]): > 2 h
IC50 (DOHH-2): 6.3 µM
IC50 (MDA-MB-231): 45 µM
Compound: Cc1cc(Nc2cc(N)ncn2)c(=O)n2c1C(=O)NC21CCCCC1 [TOMIVOSERTIB]
inhibition in vivo at 10 mg/kg (TMD8 [6]): 75%
IC50 [1]: > 30 µM
IC50 (LN-18): 6.27 µM
